Test [1] deals with Zsw48+Zsw15 (RNA, riboswitch) GGAUACAGGACUGGCGGAUUAGUGGAAGCAACCACGUGGACUGUAUCCG/GCCGACCGCCUGGGC
Put plainly: 1H NMR. Conditions: 50 mM KCl, 25 mM potassium phosphate, 10 mM Mg2+; pH 6.2; 100 μM RNA, 2 eq. ZMP; affinity lower than Zsw77.

Test [2] has as its system Zsw77 (RNA, riboswitch) GGAUACAGGACUGGCGGAUUAGUGGAAGCAACCACGUGGACUGUAUCCGAAGAAAAGCCGACCGCCUGGGCAAAAA
The experiment in a line: ITC. Conditions: K+ 50 mM KCl + 25 mM potassium phosphate; Mg2+ 10 mM MgCl2 (assumed from NMR prep); pH 6.2; 60 μM RNA; stoichiometry free, binding-competent fraction 53%.

Test [3] relates to Zsw89 (RNA, riboswitch) GGAUACAGGACUGGCGGAUUAGUGGAAGCAACCACGUGGACUGUAUCCGAAGAAAAGCCGACCGCCUGGGCAAAAAUUAGCCCAGGCG
Put plainly: 1H NMR titration. Conditions: 50 mM KCl, 25 mM potassium phosphate, 10 mM Mg2+; pH 6.2; up to 2 eq. ZMP.

Test [4] deals with Zsw90 (RNA, riboswitch) GGAUACAGGACUGGCGGAUUAGUGGAAGCAACCACGUGGACUGUAUCCGAAGAAAAGCCGACCGCCUGGGCAAAAAUUAGCCCAGGCGG
The experiment in a line: 1H NMR titration. Conditions: 50 mM KCl, 25 mM potassium phosphate, 10 mM Mg2+; pH 6.2; up to 2 eq. ZMP.

For test [5], the system named is Zsw81 (RNA, riboswitch) GGAUACAGGACUGGCGGAUUAGUGGAAGCAACCACGUGGACUGUAUCCGAAGAAAAGCCGACCGCCUGGGCAAAAAUUAG
The experiment in a line: ITC. The following applies: K+ 50 mM KCl + 25 mM potassium phosphate; Mg2+ 10 mM MgCl2 (assumed from NMR prep); pH 6.2; 60 μM RNA; stoichiometry free, binding-competent fraction 13%.

Test [6] concerns Zsw84 (RNA, riboswitch) GGAUACAGGACUGGCGGAUUAGUGGAAGCAACCACGUGGACUGUAUCCGAAGAAAAGCCGACCGCCUGGGCAAAAAUUAGCCC
Put plainly: 1H NMR titration. The following applies: 50 mM KCl, 25 mM potassium phosphate, 10 mM Mg2+; pH 6.2; up to 2 eq. ZMP.

Test [7] deals with Zsw86 (RNA, riboswitch) GGAUACAGGACUGGCGGAUUAGUGGAAGCAACCACGUGGACUGUAUCCGAAGAAAAGCCGACCGCCUGGGCAAAAAUUAGCCCAG
Put plainly: 1H NMR titration. The following applies: 50 mM KCl, 25 mM potassium phosphate, 10 mM Mg2+; pH 6.2; up to 2 eq. ZMP.

In test [8] the test system is Zsw81 (RNA, riboswitch) GGAUACAGGACUGGCGGAUUAGUGGAAGCAACCACGUGGACUGUAUCCGAAGAAAAGCCGACCGCCUGGGCAAAAAUUAG
The experiment in a line: 1H NMR titration, U42 imino intensity. The following applies: 50 mM KCl, 25 mM potassium phosphate, 10 mM Mg2+; pH 6.2; RNA concentration free in fit, binding-competent fraction 43%.

Test [9] relates to Zsw77 (RNA, riboswitch) GGAUACAGGACUGGCGGAUUAGUGGAAGCAACCACGUGGACUGUAUCCGAAGAAAAGCCGACCGCCUGGGCAAAAA
The experiment in a line: 1H NMR titration, U42 imino intensity. Conditions: 50 mM KCl, 25 mM potassium phosphate, 10 mM Mg2+; pH 6.2; RNA concentration free in fit, binding-competent fraction 70%.

In test [10] the test system is Zsw83 (RNA, riboswitch) GGAUACAGGACUGGCGGAUUAGUGGAAGCAACCACGUGGACUGUAUCCGAAGAAAAGCCGACCGCCUGGGCAAAAAUUAGCC
Put plainly: 1H NMR titration. Conditions: 50 mM KCl, 25 mM potassium phosphate, 10 mM Mg2+; pH 6.2; 120 μM RNA; up to 2 eq. ZMP.

In test [11] the test system is Zsw87 (RNA, riboswitch) GGAUACAGGACUGGCGGAUUAGUGGAAGCAACCACGUGGACUGUAUCCGAAGAAAAGCCGACCGCCUGGGCAAAAAUUAGCCCAGG
The experiment in a line: 1H NMR titration. Conditions: 50 mM KCl, 25 mM potassium phosphate, 10 mM Mg2+; pH 6.2; up to 2 eq. ZMP.

The test system of test [12] is Zsw85 (RNA, riboswitch) GGAUACAGGACUGGCGGAUUAGUGGAAGCAACCACGUGGACUGUAUCCGAAGAAAAGCCGACCGCCUGGGCAAAAAUUAGCCCA
The experiment in a line: 1H NMR titration. The following applies: 50 mM KCl, 25 mM potassium phosphate, 10 mM Mg2+; pH 6.2; up to 2 eq. ZMP.

The subject of test [13] is Zsw101 (RNA, riboswitch) GGAUACAGGACUGGCGGAUUAGUGGAAGCAACCACGUGGACUGUAUCCGAAGAAAAGCCGACCGCCUGGGCAAAAAUUAGCCCAGGCGGUAUUUAUUUUU
The experiment in a line: 1H NMR. Conditions: 50 mM KCl, 25 mM potassium phosphate, Mg2+; pH 6.2.

Test [14] concerns Zsw91 (RNA, riboswitch) GGAUACAGGACUGGCGGAUUAGUGGAAGCAACCACGUGGACUGUAUCCGAAGAAAAGCCGACCGCCUGGGCAAAAAUUAGCCCAGGCGGU
The experiment in a line: ITC. The following applies: K+ (50 mM KCl, 25 mM potassium phosphate); Mg2+ for ITC not stated; pH 6.2; 60 μM RNA, 600 μM ZMP in syringe.

Test [15] deals with Zsw82 (RNA, riboswitch) GGAUACAGGACUGGCGGAUUAGUGGAAGCAACCACGUGGACUGUAUCCGAAGAAAAGCCGACCGCCUGGGCAAAAAUUAGC
Put plainly: ITC and 1H NMR titration. The following applies: 50 mM KCl, 25 mM potassium phosphate, 10 mM Mg2+ (NMR); pH 6.2; minor binding-competent population prevented curve fitting.

With `NC(=O)c1ncn([C@@H]2O[C@H](COP(=O)(O)O)[C@@H](O)[C@H]2O)c1N`, the binding entry in [1] is “yes”; in [3] it was “no”; in [4] it was “no”; in test [6] it was “no”; in test [7], “no”; in test [10], “no”. Also, the binding entry in test [11] was “no”; in [12] it was “no”; in test [13], “no”; in test [14], “no”; in test [15], “weak”. For the same compound, the dissociation constant in [2] came to 0.57 µM; in test [5], 0.54 µM; in [8], 2.58 µM; in test [9] it was 2.78 µM.

These data come from PMC7337938 (2020).
